IC50 data for three compounds are collected here from patent EP4818174A1, “ERIBULIN DERIVATIVE AND ANTIBODY-DRUG CONJUGATE THEREOF, AND MEDICAL USE THEREOF” ([…] CO., LTD., priority 2024, dated 2025).

Structures can show the parent of a compound that is named as a salt. Where two headings read alike, the source gives them in different places.

What all share (assay): Inhibitory activity on other cancer cell lines (similar method)
Holding throughout (format): cell-based

The test system of test [1] is 22Rv1. The note with it: Homo sapiens. The protocol: (§1) On the day of the test, the cells were digested with 0.25% trypsin (Gibco, 25200-072), filtered with a sieve with a pore size of 40 µm, diluted with the corresponding medium until a cell density reached 1 × 10^4 cells/mL, and inoculated onto a 96-well white cell culture plate (Beyotime, FCP968), 100 µL of cells were added per well, the culture plate was put in a 37°C incubator (Thermo 311) containing 5% CO2, and the cells were further incubated for 24 hours. On Day 2, to-be-tested samples were prepared into a stock solution at a final concentration of […] with DMSO (Sigma, D1650), then diluted with the corresponding medium until a final concentration reached 200 nM, and then subjected to four-fold serial dilutions, to prepare solutions at a total of 9 concentrations. 100 µL of the diluted sample was added to a 96-well plate, the plate was put in a 37°C incubator containing 5% CO2, and the cells were further incubated for 144 hours. The cell culture plate was removed, 100 µL of cell viability assay agent (CellTiter-Glo® Luminescent Cell Viability Assay, Promega, G7571) was added to each well, and the reaction solution allowed to react in the dark for 5 minutes at room temperature. Luminescence values were read by a microplate reader (TECAN SPARK) and data were processed with Graphpad Prism 7 software.
(§2) Table 2: Inhibitory IC50 Values of Compounds PE-21EK and PE-AM4 in the Present Invention Against Other Cancer Cell Lines

Test [2] relates to A549. The following applies: Homo sapiens. The protocol: as §1, §2
For test [3], the system named is DU145. The note with it: Homo sapiens. As to the method: as §1, §2
The test system of test [4] is H1975. The note with it: Homo sapiens. The protocol: as §1, §2
In test [5] the test system is HCC1937. The following applies: Homo sapiens. As to the method: as §1, §2
Test [6] relates to HS578T. The following applies: Homo sapiens, Hs-578T, read-out: Inhibitory IC50 values. The protocol:
as §1, §2

Test [7] has as its system IGROV-1. The note with it: Homo sapiens. As to the method: as §1, §2
For test [8], the system named is Lncap cell. The note with it: Homo sapiens, read-out: Inhibitory IC50 values. The protocol:
as §1, §2

The subject of test [9] is MDA-MB-453. The following applies: Homo sapiens. As to the method: as §1, §2
Test [10] relates to MDAMB231. The following applies: Homo sapiens. As to the method:
as §1, §2

Test [11] has as its system MIA PaCa-2. The note with it: Homo sapiens. The protocol:
as §1, §2

Test [12] has as its system NCI-H1650. The following applies: Homo sapiens. The protocol: as §1, §2
Test [13] concerns NSCLC. The note with it: read-out: Inhibitory IC50 values. As to the method: as §1, §2
For test [14], the system named is Renal cancer. The following applies: read-out: Inhibitory IC50 values. As to the method:
as §1, §2

Test [15] relates to SW620. The following applies: Homo sapiens. The protocol:
as §1, §2

Setting [16] is: 22Rv1, cell source Prostate cancer, unit inferred, read-out: Inhibitory IC50 values.
Setting [17] is: A549, cell source NSCLC, unit inferred, read-out: Inhibitory IC50 values.
[18] abbreviates: DU-145, DU145, cell source Prostate cancer, unit inferred, read-out: Inhibitory IC50 values.
Where [19] appears, read: NCI-H1975, H1975, cell source NSCLC, unit inferred, read-out: Inhibitory IC50 values.
[20] abbreviates: HCC1937, cell source Breast cancer, unit inferred, read-out: Inhibitory IC50 values.
Setting [21] is: HS578T, cell source Breast cancer, unit inferred.
[22] abbreviates: IGROV-1, cell source Ovarian cancer, unit inferred, read-out: Inhibitory IC50 values.
The mark [23] stands for this setting: Lncap cell, cell source Prostate cancer, unit inferred.
The mark [24] stands for this setting: MDA-MB-453, cell source Breast cancer, unit inferred, read-out: Inhibitory IC50 values.
[25] abbreviates: MDA-MB-231, MDAMB231, cell source Breast cancer, unit inferred, read-out: Inhibitory IC50 values.
Where [26] appears, read: MIA PaCa-2, cell source Pancreatic cancer, unit inferred, read-out: Inhibitory IC50 values.
Where [27] appears, read: NCI-H1650, cell source NSCLC, unit inferred, read-out: Inhibitory IC50 values.
Setting [28] is: SW-620, SW620, cell source Colon cancer, unit inferred, read-out: Inhibitory IC50 values.

In the case of `C=C1C[C@@H]2CC[C@@]34C[C@H]5O[C@H]6[C@@H](O3)[C@H]3O[C@H](CC[C@@H]3O[C@H]6[C@H]5O4)CC(=O)C[C@@H]3[C@@H](OC)[C@@H](CC(=O)N4CC(CO)C4)O[C@H]3C[C@H]3O[C@@H](CC[C@@H]1O2)C[C@@H](C)C3=C` [PE-AM4], the IC50 turned out to be 0.741 nM in [1] (setting [16]); 4.92 nM in test [2] (setting [17]); 0.686 nM in test [3] (setting [18]); 0.728 nM in test [4] (setting [19]); 0.647 nM in [5] (setting [20]); 0.276 nM in test [6] (setting [21]). The IC50 in test [7] (setting [22]) is 0.623 nM; in test [8] (setting [23]), 0.457 nM; in [9] (setting [24]) it was 0.151 nM; in [10] (setting [25]), 1.08 nM; in [11] (setting [26]), 1.23 nM; in test [12] (setting [27]), 1.56 nM. Moreover, the IC50 worked out at 3.13 nM in [13], 3.47 nM in [14] and 1.3 nM in test [15] (setting [28]).

Consider `C=C1C[C@@H]2CC[C@@]34C[C@H]5O[C@H]6[C@@H](O3)[C@H]3O[C@H](CC[C@@H]3O[C@H]6[C@H]5O4)CC(=O)C[C@@H]3[C@@H](OC)[C@@H](C[C@H](O)CN)O[C@H]3C[C@H]3O[C@@H](CC[C@@H]1O2)C[C@@H](C)C3=C` [PE-E, eribulin mesylate, reference compound], for which the IC50 in test [1] (22Rv1, read-out: Inhibitory IC50 values) is 0.618 nM; in test [2] (A549, read-out: Inhibitory IC50 values) it was 4.17 nM; in [3] (DU-145, read-out: Inhibitory IC50 values), 1.68 nM; in test [4] (NCI-H1975, read-out: Inhibitory IC50 values) it was 0.505 nM; in test [5] (HCC1937, read-out: Inhibitory IC50 values) it was 2.85 nM; in test [6] it was 0.188 nM. Besides, the IC50 in test [7] (IGROV-1, read-out: Inhibitory IC50 values) came to 0.439 nM; in [8] (LNCaP) it was 1.3 nM; in test [9] (MDA-MB-453, read-out: Inhibitory IC50 values), 19.3 nM; in test [10] (MDA-MB-231, read-out: Inhibitory IC50 values) it was 0.805 nM; in test [11] (MIA PaCa-2, read-out: Inhibitory IC50 values) it was 0.668 nM; in [12] (NCI-H1650, read-out: Inhibitory IC50 values), 2.35 nM. Also, the IC50 in test [13] amounted to 0.649 nM; in [14], 0.755 nM; in test [15] (SW-620, read-out: Inhibitory IC50 values), 0.419 nM.

Take `C=C1C[C@@H]2CC[C@@]34C[C@H]5O[C@H]6[C@@H](O3)[C@H]3O[C@H](CC[C@@H]3O[C@H]6[C@H]5O4)CC(=O)C[C@@H]3[C@@H](OC)[C@@H](CC(=O)CNC(=O)OCCCCCO)O[C@H]3C[C@H]3O[C@@H](CC[C@@H]1O2)C[C@@H](C)C3=C` [PE-21EK]: the concentration for half-maximal inhibition (IC50) in test [1] (setting [16]) worked out at 0.125 nM; in test [2] (setting [17]) it was 0.194 nM; in [3] (setting [18]), 0.501 nM; in test [4] (setting [19]), 0.0708 nM; in [5] (setting [20]), 0.104 nM; in [6] (setting [21]), 0.0207 nM. Also, the concentration for half-maximal inhibition (IC50) was determined as 0.289 nM in [7] (setting [22]); 0.123 nM in [8] (setting [23]); 0.0846 nM in test [9] (setting [24]); 0.218 nM in test [10] (setting [25]); 0.158 nM in test [11] (setting [26]); 0.262 nM in [12] (setting [27]). For the same compound, the IC50 worked out at 0.184 nM in test [13], 0.102 nM in [14] and 0.0221 nM in test [15] (setting [28]).

As a reminder, the IC50 is the concentration that gives 50% inhibition.
